What all share (format): cell-based
For data set [1], the target named is T1, ATP-dependent translocase ABCB1 (Homo sapiens, UniProt P08183). Put plainly: Inhibition of human MDR1 expressed in mouse L5178 cells assessed as rhodamine-123 accumulation measured as fluorescence activity ratio at 2 uM after 20 mins by flow cytometry relative to control. As to conditions: l5178, 20 min. For orientation: Flow cytometry measures light scatter and fluorescence of single cells or particles in a stream.

A short description of data set [2]: Cytotoxicity against multidrug resistant mouse L5178 cells after 24 hrs by MTT assay. As to conditions: l5178, 24 h.
The target of data set [3] is T1, ATP-dependent translocase ABCB1. Kind of data set: Inhibition of human MDR1 expressed in mouse L5178 cells assessed as rhodamine-123 accumulation measured as fluorescence activity ratio at 20 uM after 20 mins by flow cytometry relative to control. As to conditions: l5178, 20 min.
Data set [4] can be described thus: Cytotoxicity against sensitive mouse L5178 cells after 24 hrs by MTT assay. As to conditions: l5178, 24 h.

13 compounds from ChEMBL document CHEMBL3797155, “The 5-aromatic hydantoin-3-acetate derivatives as inhibitors of the tumour multidrug resistance efflux pump P-glycoprotein (ABCB1): Synthesis, crystallographic and biological studies” (Bioorg Med Chem, 2016) can be followed below.

A value given as a limit tells only on which side of the number the result lay.

T1 sequence (P08183 whole entry): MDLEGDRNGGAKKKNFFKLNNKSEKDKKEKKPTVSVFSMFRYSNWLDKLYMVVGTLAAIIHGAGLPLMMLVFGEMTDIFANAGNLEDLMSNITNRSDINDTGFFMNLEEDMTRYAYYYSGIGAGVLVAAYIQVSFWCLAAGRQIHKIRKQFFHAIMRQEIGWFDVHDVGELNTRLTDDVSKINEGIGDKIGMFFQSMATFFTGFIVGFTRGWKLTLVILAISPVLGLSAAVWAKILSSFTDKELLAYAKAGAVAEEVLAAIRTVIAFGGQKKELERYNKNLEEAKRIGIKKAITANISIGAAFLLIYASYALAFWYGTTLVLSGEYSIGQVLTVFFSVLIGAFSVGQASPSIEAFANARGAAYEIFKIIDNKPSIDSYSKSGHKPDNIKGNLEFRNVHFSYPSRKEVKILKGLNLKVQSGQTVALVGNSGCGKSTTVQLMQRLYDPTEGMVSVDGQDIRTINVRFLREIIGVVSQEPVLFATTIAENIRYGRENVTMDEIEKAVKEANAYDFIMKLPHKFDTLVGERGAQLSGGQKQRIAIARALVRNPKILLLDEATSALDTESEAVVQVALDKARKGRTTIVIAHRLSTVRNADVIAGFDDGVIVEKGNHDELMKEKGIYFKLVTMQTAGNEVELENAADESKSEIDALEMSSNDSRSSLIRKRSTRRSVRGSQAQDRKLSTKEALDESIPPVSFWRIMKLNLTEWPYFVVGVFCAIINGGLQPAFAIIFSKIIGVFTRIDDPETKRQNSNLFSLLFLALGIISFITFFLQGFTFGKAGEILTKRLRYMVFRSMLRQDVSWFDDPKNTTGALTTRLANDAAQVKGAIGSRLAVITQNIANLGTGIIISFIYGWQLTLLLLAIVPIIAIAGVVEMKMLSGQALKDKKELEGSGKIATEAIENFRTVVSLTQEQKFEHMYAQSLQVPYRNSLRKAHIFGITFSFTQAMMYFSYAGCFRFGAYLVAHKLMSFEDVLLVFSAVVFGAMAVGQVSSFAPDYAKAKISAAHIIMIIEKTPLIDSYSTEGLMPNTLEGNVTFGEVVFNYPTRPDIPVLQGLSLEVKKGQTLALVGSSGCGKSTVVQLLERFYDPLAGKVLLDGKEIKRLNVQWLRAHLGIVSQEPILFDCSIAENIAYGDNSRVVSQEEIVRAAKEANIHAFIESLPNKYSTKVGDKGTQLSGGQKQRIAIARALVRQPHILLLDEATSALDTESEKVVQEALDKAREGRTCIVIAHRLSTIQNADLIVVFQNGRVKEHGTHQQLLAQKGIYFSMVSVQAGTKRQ

In the case of `COC(=O)CN1C(=O)N(CC(O)CN2CCN(c3ccccc3)CC2)C(c2ccccc2)(c2ccccc2)C1=O` (centres undefined), the results for the Ratio in data set [1] and in data set [3] were 72.64 and 90.43, respectively. Besides, the Activity in data set [2] was 67 µM; in data set [4] it was 33 µM.
For `COc1ccccc1N1CCN(CC(O)CN2C(=O)N(CC(=O)O)C(=O)C2(c2ccccc2)c2ccccc2)CC1` (centres undefined), in that order: 0.84, 0.86, greater than 100 µM and greater than 100 µM.
Regarding `COC(=O)CN1C(=O)N(CCCN2CCN(c3ccccc3)CC2)C(c2ccccc2)(c2ccccc2)C1=O`, the results for the Ratio in data set [1] and in data set [3] were 89.34 and 116.27, respectively. Besides, the Activity in data set [2] is greater than 100 µM; in data set [4], 40 µM.
For `COC(=O)CN1C(=O)N(CCCCN2CCN(c3ccccc3)CC2)C(c2ccccc2)(c2ccccc2)C1=O`, in that order: 77.15, 99.82, 26 µM and 13 µM.
For `COc1ccccc1N1CCN(CCCCN2C(=O)N(CC(=O)O)C(=O)C2(c2ccccc2)c2ccccc2)CC1`, in that order: 1, 2.04, greater than 100 µM and greater than 100 µM.
Consider `COC(=O)CN1C(=O)N(CCCCN2CCN(c3ccccc3F)CC2)C2(C1=O)c1ccccc1-c1ccccc12`, for which the Ratio in data set [1] is 35.38; in data set [3], 72.04. The Activity in data set [2] amounted to 84 µM; in data set [4], 58 µM.
`O=C(O)CN1C(=O)N(CCCCN2CCN(C(=O)c3ccco3)CC2)C2(C1=O)c1ccccc1-c1ccccc12`: the figures for the Ratio in data set [1] and in data set [3] were 0.68 and 0.69, respectively. Also, the Activity in data set [2] and in data set [4] was greater than 100 µM in each case.
As for `COC(=O)CN1C(=O)N(CCCCN2CCN(c3ccccc3)CC2)C2(C1=O)c1ccccc1-c1ccccc12`, the figures for the Ratio in data set [1] and in data set [3] were 21.61 and 70.19, respectively. For the same compound, the Activity in data set [2] was greater than 100 µM; in data set [4] it was 53 µM.
With `COC(=O)CN1C(=O)N(CCCCN2CCN(c3cccc(Cl)c3Cl)CC2)C(c2ccccc2)(c2ccccc2)C1=O`, the Ratio was found to be 132.85 in data set [1] and 98.11 in data set [3]. Further, the Activity was found to be 40 µM in data set [2] and 18 µM in data set [4].
Regarding `COC(=O)CN1C(=O)N(CCCCN2CCN(C(=O)c3ccco3)CC2)C2(C1=O)c1ccccc1-c1ccccc12`, the Ratio in data set [1] is on record as 1.86; in data set [3] it was 24.89. Moreover, the Activity in data set [2] came out at 63 µM; in data set [4], 59 µM.
For `COC(=O)CN1C(=O)N(CCCCN2CCN(c3ccc(F)cc3)CC2)C2(C1=O)c1ccccc1-c1ccccc12`, in that order: 19.4, 71.11, 56 µM and 40 µM.
As for `COC(=O)CN1C(=O)N(CCCCN2CCN(c3ccccc3F)CC2)C(c2ccccc2)(c2ccccc2)C1=O`, the Ratio was found to be 102.74 in data set [1] and 99.09 in data set [3]. Further, the Activity in data set [2] and in data set [4] was greater than 100 µM each time.
On to `COc1ccc(CCN(C)CCCC(C#N)(c2ccc(OC)c(OC)c2)C(C)C)cc1OC` (centres undefined) [VERAPAMIL], for which the Ratio in data set [3] is reported as 17.59.
